We go through 24 compounds from patent publication US20090203725A1, “Androgen Receptor Modulator Compounds and Methods” (priority 2005, published 2009).

By Ki is commonly meant the dissociation constant of the complex between target and ligand, obtained from inhibition or displacement.

The first experiment concerns the target T1, hAR (Homo sapiens, UniProt P10275).
T1 construct: expressed in transfected cells; host or cells: COS-1 cells transiently transfected with pRShAR, pRS-β-Gal and pGEM
T1 sequence (P10275 1-920): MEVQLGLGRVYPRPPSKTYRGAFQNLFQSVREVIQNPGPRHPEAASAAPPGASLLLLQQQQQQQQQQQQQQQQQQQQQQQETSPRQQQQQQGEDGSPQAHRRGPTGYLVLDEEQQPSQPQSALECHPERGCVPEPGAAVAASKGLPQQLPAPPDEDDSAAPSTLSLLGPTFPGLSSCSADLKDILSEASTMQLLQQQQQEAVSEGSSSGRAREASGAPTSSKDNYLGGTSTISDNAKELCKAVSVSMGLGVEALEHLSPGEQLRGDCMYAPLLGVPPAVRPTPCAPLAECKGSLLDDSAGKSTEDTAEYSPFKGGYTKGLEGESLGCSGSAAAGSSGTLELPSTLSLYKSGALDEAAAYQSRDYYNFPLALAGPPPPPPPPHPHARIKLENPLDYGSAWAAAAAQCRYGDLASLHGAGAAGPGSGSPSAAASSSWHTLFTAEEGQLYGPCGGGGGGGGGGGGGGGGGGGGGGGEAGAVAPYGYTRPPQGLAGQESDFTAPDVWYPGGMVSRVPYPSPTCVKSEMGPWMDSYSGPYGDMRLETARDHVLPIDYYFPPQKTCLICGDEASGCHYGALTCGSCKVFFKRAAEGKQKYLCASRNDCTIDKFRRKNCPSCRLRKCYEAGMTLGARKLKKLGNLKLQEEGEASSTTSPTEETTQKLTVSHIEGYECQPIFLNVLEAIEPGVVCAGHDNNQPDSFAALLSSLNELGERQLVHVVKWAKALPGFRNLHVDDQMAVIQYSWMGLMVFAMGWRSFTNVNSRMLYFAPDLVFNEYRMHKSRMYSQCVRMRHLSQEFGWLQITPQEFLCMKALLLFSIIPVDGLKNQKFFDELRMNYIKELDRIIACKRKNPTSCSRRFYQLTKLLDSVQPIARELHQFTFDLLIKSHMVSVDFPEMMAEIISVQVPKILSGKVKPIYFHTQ
Description: IR Binding Assay: displacement of 3H-DHT in COS-1 cells transfected with pRShAR.
Details: not given
The method, then: COS-1 cells in 96-well microtiter plates containing DMEM-10% FBS were transfected using standard techniques with plasmids pRShAR (2 ng/well), pRS-β-Gal (50 ng/well) and pGEM (48 ng/well). Six hours after transfection, media was removed, the cells were washed with PBS and fresh media was added. Twenty-four hours later, the media was changed to serum free DMEM and the cells were incubated for twenty-four hours.
Three replicates were used for each sample.
After three hours at 37° C., aliquots of media from each well of both test plates and control plates were removed to estimate the amount of free ^3H-DHT. The remaining media was removed, the cells were washed three times with PBS, and cells were lysed with a Triton X-100-based buffer. The lysates were assayed for amount of bound ^3H-DHT and β-Gal activity using a scintillation counter and spectrophotometer, respectively.
Determination of Kd for ^3H-DHT. Total binding was defined as binding of ^3H-DHT in the absence of 100 molar excess of unlabeled DHT in the control plate. […] binding was defined as binding of ^3H-DHT in the presence of 100 molar excess of unlabeled DHT in the control plate. Specific binding was defined as the difference between the total binding and the nonspecific binding, normalized by the β-Gal rate. Specific binding was used in Scatchard analysis to determine the Kd for ^3H-DHT.
Test Compounds. To determine binding affinity (Ki) for test compounds, the data from each concentration of test compound was calculated as a percentage of the signal for the sample with no test compound. […] The Ki values were determined by the Cheng-Prusoff equation, where: […]
Background: Displacement assays read how much labelled ligand stays bound in the presence of the test substance.
Regarding `COc1cccc2c1-c1ccc3[nH]c(=O)cc(C(F)(F)F)c3c1CO2` [Compound 113], the Ki lay within 10 to 50 nM.

For the compound `CC(C)(C)C(=O)Oc1cccc2c1-c1ccc3[nH]c(=O)cc(C(F)(F)F)c3c1CO2` [Compound 116, 2,2-Dimethyl-propionic acid 2-oxo-4-trifluoromethyl-2,5-dihydro-1H-6-oxa-1-aza-chrysen-10-yl ester], the Ki was below 10 nM.

In turn, `Cc1cc(=O)[nH]c2ccc3c4c(CO)cccc4oc(=O)c3c12` [Compound 124, 10-Hydroxymethyl-4-methyl-1H-6-oxa-1-aza-chrysene-2,5-dione] registered an inhibition constant Ki of 10 to 50 nM.

The compound `O=c1cc(C(F)(F)F)c2c3c(ccc2[nH]1)-c1c(O)cccc1OC3` [Compound 115, 10-Hydroxy-4-trifluoromethyl-1H,5H-6-oxa-1-aza-chrysen-2-one] came in with a Ki below 10 nM.

Turning to `COc1c(OC(=O)C(C)(C)C)ccc2oc(=O)c3c(ccc4[nH]c(=O)cc(C)c43)c12` [Compound 102, 2,2-Dimethylpropionic acid 10-methoxy-4-methyl-2,5-dioxo-2,5-dihydro-1H-6-oxa-1-aza-chrysen-9-yl ester], the Ki is 10 to 50 nM.

With `COc1cccc2c1-c1ccc3[nH]c(=O)cc(C(F)(F)F)c3c1C(O)O2` (racemic) [Compound 114, (±)-5-Hydroxy-10-methoxy-4-trifluoromethyl-1H,5H-6-oxa-1-aza-chrysen-2-one], the Ki was above 50 nM.

With `COc1cccc2c1-c1ccc3[nH]c(=O)cc(C(F)(F)F)c3c1OC2` [Compound 127, 10-Methoxy-4-trifluoromethyl-1,6-dihydro-5-oxa-1-azachrysen-2-one], the Ki is 10 to 50 nM.

For `COc1cccc2c1-c1ccc3[nH]c(=O)cc(C)c3c1C(C)O2` (racemic) [Compound 107, (±)-10-Methoxy-4,5-dimethyl-1H,5H-6-oxa-1-aza-chrysen-2-one], the Ki is above 50 nM.

With `COc1cccc2c(=O)oc3c(ccc4[nH]c(=O)cc(C(F)(F)F)c43)c12` [Compound 126, 10-Methoxy-4-trifluoromethyl-1H-5-oxa-1-azachrysene-2,6-dione], the Ki was 10 to 50 nM.

Still in this experiment, the particulars now being: 1 nM 3H-DHT, transfected COS-1 cells, 3 hours at 37° C., Cheng-Prusoff; read-out: Binding to hAR (Ki value ranges).
In the case of `Cc1cc(=O)[nH]c2ccc3c4c(OC(=O)C(C)(C)C)cccc4oc(=O)c3c12` [Compound 104, 2,2-Dimethylpropionic acid 4-methyl-2,5-dioxo-2,5-dihydro-1H-6-oxa-1-aza-chrysen-10-yl ester], the Ki is below 10 nM.

In the case of `COc1cccc2c1-c1ccc3[nH]c(=O)cc(C)c3c1C(=O)OC2` [Compound 123, 4-Methoxy-10-methyl-7,13-dihydro-12-oxa-7-aza-benzo[3,4]cyclohepta[1,2-α]-naphthalene-8,11-dione], the Ki is above 50 nM.

Regarding `COc1cccc2c1-c1ccc3[nH]c(=O)cc(C)c3c1C(C)(OC)O2` (racemic) [Compound 108, (±)-5,10-Dimethoxy-4,5-dimethyl-1H,5H-6-oxa-1-azachrysen-2-one], the Ki is above 50 nM.

On to `COc1c(O)ccc2c1-c1ccc3[nH]c(=O)cc(C)c3c1C(OC)O2` (racemic) [Compound 118, (±)-9-Hydroxy-5,10-dimethoxy-4-methyl-1H,5H-6-oxa-1-aza-chrysen-2-one], for which the Ki is above 50 nM.

Take `COc1ccc2oc(=O)c3c(ccc4[nH]c(=O)cc(C)c43)c2c1` [Compound 103, 9-Methoxy-4-methyl-1H-6-oxa-1-aza-chrysene-2,5-dione]: the Ki was above 50 nM.

For the compound `COc1cccc2c1-c1ccc3[nH]c(=O)cc(C)c3c1CO2` [Compound 109, 10-Methoxy-4-methyl-1H,5H-6-oxa-1-azachrysen-2-one], the Ki was above 50 nM.

`COc1c(O)ccc2oc(=O)c3c(ccc4[nH]c(=O)cc(C)c43)c12` [Compound 117, 9-Hydroxy-10-methoxy-4-methyl-1H-6-oxa-1-aza-chrysene-2,5-dione]: the Ki is below 10 nM.

`COC(=O)c1cccc2oc(=O)c3c(ccc4[nH]c(=O)cc(C)c43)c12` [Compound 111, 4-Methyl-2,5-dioxo-2,5-dihydro-1H-6-oxa-1-aza-chrysene-10-carboxylic acid methyl ester]: the Ki was above 50 nM.

`CCOc1ccc2oc(=O)c3c(ccc4[nH]c(=O)cc(C)c43)c2c1OC` [Compound 121, 9-Ethoxy-10-methoxy-4-methyl-1H-6-oxa-1-aza-chrysene-2,5-dione]: the Ki is above 50 nM.

For the compound `COc1c(O)ccc2c1-c1ccc3[nH]c(=O)cc(C)c3c1CO2` [Compound 119, 9-Hydroxy-10-methoxy-4-methyl-1H,5H-6-oxa-1-aza-chrysen-2-one], the Ki is below 10 nM.

Turning to `COc1cccc2c1-c1ccc3[nH]c(=O)cc(C)c3c1C(O)O2` (racemic) [Compound 105, (±)-5-Hydroxy-10-methoxy-4-methyl-1H,5H-6-oxa-1-aza-chrysen-2-one], the Ki was above 50 nM.

With `CCOc1ccc2oc(=O)c3c(ccc4c3c(C)cc(=O)n4CC)c2c1OC` [Compound 122, 9-Ethoxy-1-ethyl-10-methoxy-4-methyl-1H-6-oxa-1-aza-chrysene-2,5-dione], the Ki is above 50 nM.

Regarding `Cc1c([N+](=O)[O-])ccc2c1c(=O)oc1cccc(O)c12` [Compound 129, 1-Hydroxy-7-methyl-8-nitrobenzo[c]coumarin], the inhibition constant (Ki) was below 10 nM.

As to `COc1cccc2oc(=O)c3c(C)c([N+](=O)[O-])ccc3c12` [Compound 130, 1-Methoxy-7-methyl-8-nitrobenzo[c]coumarin], the Ki is above 50 nM.

Take `COc1c(OC(C)C)ccc2oc(=O)c3c(ccc4[nH]c(=O)cc(C)c43)c12` [Compound 120, 9-Isopropoxy-10-methoxy-4-methyl-1H-6-oxa-1-aza-chrysene-2,5-dione]: the Ki lay within 10 to 50 nM.
